# Results taken from PubChem BioAssay (NCI).
#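 Cells were grown in 96-well plates and exposed to each compound for 48 hours at five concentrations; endpoints were interpolated linearly between bracketing concentrations, or set to the highest concentration if not reached. Here, GI50 denotes the concentration required for 50% inhibition of growth. TGI: total growth inhibition.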
# What was measured:
# Assay in all cases: NCI tumour cell line growth inhibition, 48 h
# MALME-3M melanoma = tested on: MALME-3M melanoma
# SNB-75 CNS = tested on: SNB-75 CNS
# MDA-MB-231 breast = tested on: MDA-MB-231 breast
# HT29 colon = tested on: HT29 colon
# UO-31 renal = tested on: UO-31 renal
# UACC-257 melanoma = tested on: UACC-257 melanoma
# HCT-15 colon = tested on: HCT-15 colon
# HOP-92 NSCLC = tested on: HOP-92 NSCLC
# ACHN renal = tested on: ACHN renal
# HCT-116 colon = tested on: HCT-116 colon
# CAKI-1 renal = tested on: CAKI-1 renal
# MDA-MB-435 = tested on: MDA-MB-435
# NCI-H23 lung = tested on: NCI-H23 lung
# SNB-19 CNS = tested on: SNB-19 CNS
# U251 CNS = tested on: U251 CNS
# SF-295 CNS = tested on: SF-295 CNS
# CCRF-CEM leukemia = tested on: CCRF-CEM leukemia
# MOLT-4 leukemia = tested on: MOLT-4 leukemia
# PC-3 prostate = tested on: PC-3 prostate
# COLO 205 colon = tested on: COLO 205 colon
# SK-MEL-28 melanoma = tested on: SK-MEL-28 melanoma
# HCC-2998 colon = tested on: HCC-2998 colon
# M14 melanoma = tested on: M14 melanoma
# TK-10 renal = tested on: TK-10 renal
# NCI-H522 lung = tested on: NCI-H522 lung
# SW-620 colon = tested on: SW-620 colon
# RXF 393 renal = tested on: RXF 393 renal
# OVCAR-8 ovarian = tested on: OVCAR-8 ovarian
# SK-MEL-5 melanoma = tested on: SK-MEL-5 melanoma
# SN12C renal = tested on: SN12C renal
# SK-OV-3 ovarian = tested on: SK-OV-3 ovarian
# T-47D breast = tested on: T-47D breast
# BT-549 breast = tested on: BT-549 breast
# K-562 leukemia = tested on: K-562 leukemia
# NCI-H226 lung = tested on: NCI-H226 lung
# DU-145 prostate = tested on: DU-145 prostate
# OVCAR-3 ovarian = tested on: OVCAR-3 ovarian
# KM12 colon = tested on: KM12 colon
# A549 NSCLC = tested on: A549 NSCLC
# SR leukemia = tested on: SR leukemia
# HS 578T breast = tested on: HS 578T breast
# 786-0 renal = tested on: 786-0 renal
# UACC-62 melanoma = tested on: UACC-62 melanoma
# SF-539 CNS = tested on: SF-539 CNS
# SF-268 CNS = tested on: SF-268 CNS
# OVCAR-4 ovarian = tested on: OVCAR-4 ovarian
# LOX IMVI melanoma = tested on: LOX IMVI melanoma
# HOP-62 NSCLC = tested on: HOP-62 NSCLC
# OVCAR-5 ovarian = tested on: OVCAR-5 ovarian
# IGROV1 ovarian = tested on: IGROV1 ovarian
# EKVX NSCLC = tested on: EKVX NSCLC
# NCI-H460 lung = tested on: NCI-H460 lung
# HL-60(TB) leukemia = tested on: HL-60(TB) leukemia
# SK-MEL-2 melanoma = tested on: SK-MEL-2 melanoma
# MCF7 breast = tested on: MCF7 breast
# NCI/ADR-RES ovarian = tested on: NCI/ADR-RES ovarian
# RPMI-8226 leukemia = tested on: RPMI-8226 leukemia
# A498 renal = tested on: A498 renal
smiles,measurement,setting,value
COc1cc2c3c(n(CCCNC(=O)OCC4c5ccccc5-c5ccccc54)c(=O)c2cc1OC)-c1cc2c(cc1/C3=C\CCNC(=O)OCC1c3ccccc3-c3ccccc31)OCO2,GI50,MALME-3M melanoma,45.5 µM
same,TGI,MALME-3M melanoma,> 50 µM
same,GI50,SNB-75 CNS,> 50 µM
same,TGI,SNB-75 CNS,> 50 µM
same,GI50,MDA-MB-231 breast,> 19 µM
same,TGI,MDA-MB-231 breast,> 44 µM
same,GI50,HT29 colon,21.5 µM
same,TGI,HT29 colon,> 50 µM
same,GI50,UO-31 renal,> 50 µM
same,TGI,UO-31 renal,> 50 µM
same,GI50,UACC-257 melanoma,> 50 µM
same,TGI,UACC-257 melanoma,> 50 µM
same,GI50,HCT-15 colon,> 50 µM
same,TGI,HCT-15 colon,> 50 µM
same,GI50,HOP-92 NSCLC,> 40.7 µM
same,TGI,HOP-92 NSCLC,> 50 µM
same,GI50,ACHN renal,> 11.8 µM
same,TGI,ACHN renal,> 35 µM
same,TGI,HCT-116 colon,> 12.9 µM
same,GI50,CAKI-1 renal,> 13.8 µM
same,TGI,CAKI-1 renal,> 46.1 µM
same,GI50,MDA-MB-435,> 28.9 µM
same,TGI,MDA-MB-435,49 µM
same,GI50,NCI-H23 lung,0.921 µM
same,TGI,NCI-H23 lung,9.54 µM
same,GI50,SNB-19 CNS,> 29.6 µM
same,TGI,SNB-19 CNS,> 50 µM
same,GI50,U251 CNS,> 17.8 µM
same,TGI,U251 CNS,> 36.7 µM
same,GI50,SF-295 CNS,> 23.6 µM
same,TGI,SF-295 CNS,> 50 µM
same,GI50,CCRF-CEM leukemia,1.42 µM
same,TGI,CCRF-CEM leukemia,> 50 µM
same,GI50,MOLT-4 leukemia,5.45 µM
same,TGI,MOLT-4 leukemia,> 50 µM
same,GI50,PC-3 prostate,> 50 µM
same,TGI,PC-3 prostate,> 50 µM
same,GI50,COLO 205 colon,> 28 µM
same,TGI,COLO 205 colon,> 50 µM
same,GI50,SK-MEL-28 melanoma,> 50 µM
same,TGI,SK-MEL-28 melanoma,> 50 µM
same,GI50,HCC-2998 colon,> 50 µM
same,TGI,HCC-2998 colon,> 50 µM
same,GI50,M14 melanoma,> 25.3 µM
same,TGI,M14 melanoma,> 50 µM
same,GI50,TK-10 renal,> 31.7 µM
same,TGI,TK-10 renal,> 50 µM
same,GI50,NCI-H522 lung,> 11 µM
same,TGI,NCI-H522 lung,> 23.6 µM
same,GI50,SW-620 colon,> 24.1 µM
same,TGI,SW-620 colon,> 50 µM
same,GI50,RXF 393 renal,5.28 µM
same,TGI,RXF 393 renal,14.6 µM
same,GI50,OVCAR-8 ovarian,> 35.3 µM
same,TGI,OVCAR-8 ovarian,> 50 µM
same,GI50,SK-MEL-5 melanoma,> 50 µM
same,TGI,SK-MEL-5 melanoma,> 50 µM
same,GI50,SN12C renal,> 50 µM
same,TGI,SN12C renal,> 50 µM
same,GI50,SK-OV-3 ovarian,> 25.6 µM
same,TGI,SK-OV-3 ovarian,> 50 µM
same,GI50,T-47D breast,> 50 µM
same,TGI,T-47D breast,> 50 µM
same,GI50,BT-549 breast,12.4 µM
same,TGI,BT-549 breast,> 50 µM
same,GI50,K-562 leukemia,9.17 µM
same,TGI,K-562 leukemia,> 35.8 µM
same,GI50,NCI-H226 lung,> 50 µM
same,TGI,NCI-H226 lung,> 50 µM
same,GI50,DU-145 prostate,> 42.2 µM
same,TGI,DU-145 prostate,> 50 µM
same,GI50,OVCAR-3 ovarian,> 44.6 µM
same,TGI,OVCAR-3 ovarian,> 50 µM
same,GI50,KM12 colon,> 27.9 µM
same,TGI,KM12 colon,> 50 µM
same,GI50,A549 NSCLC,> 26.6 µM
same,TGI,A549 NSCLC,> 50 µM
same,GI50,SR leukemia,3.29 µM
same,TGI,SR leukemia,21 µM
same,GI50,HS 578T breast,1.29 µM
same,TGI,HS 578T breast,10.2 µM
same,GI50,786-0 renal,> 16.2 µM
same,TGI,786-0 renal,> 29.8 µM
same,GI50,UACC-62 melanoma,> 21.6 µM
same,TGI,UACC-62 melanoma,> 36 µM
same,GI50,SF-539 CNS,35.7 µM
same,TGI,SF-539 CNS,> 50 µM
same,GI50,SF-268 CNS,1.48 µM
same,TGI,SF-268 CNS,> 14 µM
same,GI50,OVCAR-4 ovarian,> 50 µM
same,TGI,OVCAR-4 ovarian,> 50 µM
same,GI50,LOX IMVI melanoma,> 22.5 µM
same,TGI,LOX IMVI melanoma,> 50 µM
same,TGI,HOP-62 NSCLC,> 24.3 µM
same,GI50,OVCAR-5 ovarian,> 19.6 µM
same,TGI,OVCAR-5 ovarian,> 45 µM
same,GI50,IGROV1 ovarian,0.915 µM
same,TGI,IGROV1 ovarian,4.93 µM
same,GI50,EKVX NSCLC,> 50 µM
same,TGI,EKVX NSCLC,> 50 µM
same,GI50,NCI-H460 lung,> 50 µM
same,TGI,NCI-H460 lung,> 50 µM
same,GI50,HL-60(TB) leukemia,18.1 µM
same,TGI,HL-60(TB) leukemia,> 50 µM
same,GI50,SK-MEL-2 melanoma,> 10.2 µM
same,TGI,SK-MEL-2 melanoma,> 21.6 µM
same,TGI,MCF7 breast,> 18.5 µM
same,GI50,NCI/ADR-RES ovarian,> 38 µM
same,TGI,NCI/ADR-RES ovarian,> 50 µM
same,GI50,RPMI-8226 leukemia,> 26.3 µM
same,TGI,RPMI-8226 leukemia,48.9 µM
Cc1ccc2c(c1)C(C(=O)N[C@@H]1C(=O)N3[C@@H]1SC(C)(C)[C@@H]3C(=O)O)OCCC2 (stereo partly drawn),TGI,SNB-75 CNS,> 100 µM
same,TGI,MDA-MB-231 breast,> 100 µM
same,TGI,HT29 colon,> 100 µM
same,TGI,UO-31 renal,> 100 µM
same,TGI,UACC-257 melanoma,> 100 µM
same,TGI,A498 renal,> 100 µM
same,TGI,HCT-15 colon,> 100 µM
same,TGI,HOP-92 NSCLC,> 100 µM
same,TGI,ACHN renal,> 100 µM
same,TGI,HCT-116 colon,> 100 µM
same,TGI,CAKI-1 renal,> 100 µM
same,TGI,MDA-MB-435,> 100 µM
same,TGI,NCI-H23 lung,> 100 µM
same,TGI,SNB-19 CNS,> 100 µM
same,TGI,U251 CNS,> 100 µM
same,TGI,SF-295 CNS,> 100 µM
same,TGI,CCRF-CEM leukemia,> 100 µM
same,TGI,MOLT-4 leukemia,> 100 µM
same,TGI,PC-3 prostate,> 100 µM
same,TGI,COLO 205 colon,> 100 µM
same,TGI,SK-MEL-28 melanoma,> 100 µM
same,TGI,HCC-2998 colon,> 100 µM
same,TGI,M14 melanoma,> 100 µM
same,TGI,TK-10 renal,> 100 µM
same,TGI,NCI-H522 lung,> 100 µM
same,TGI,SW-620 colon,> 100 µM
same,TGI,RXF 393 renal,> 100 µM
same,TGI,OVCAR-8 ovarian,> 100 µM
same,TGI,SK-MEL-5 melanoma,> 100 µM
same,TGI,SN12C renal,> 100 µM
same,TGI,SK-OV-3 ovarian,> 100 µM
same,TGI,T-47D breast,> 100 µM
same,TGI,BT-549 breast,> 100 µM
same,TGI,K-562 leukemia,> 100 µM
same,TGI,NCI-H226 lung,> 100 µM
same,TGI,DU-145 prostate,> 100 µM
same,TGI,OVCAR-3 ovarian,> 100 µM
same,TGI,KM12 colon,> 100 µM
same,TGI,A549 NSCLC,> 100 µM
same,TGI,SR leukemia,> 100 µM
same,TGI,HS 578T breast,> 100 µM
same,TGI,786-0 renal,> 100 µM
same,TGI,UACC-62 melanoma,> 100 µM
same,TGI,SF-539 CNS,> 100 µM
same,TGI,SF-268 CNS,> 100 µM
same,TGI,OVCAR-4 ovarian,> 100 µM
same,TGI,LOX IMVI melanoma,> 100 µM
same,TGI,HOP-62 NSCLC,> 100 µM
same,TGI,OVCAR-5 ovarian,> 100 µM
same,TGI,IGROV1 ovarian,> 100 µM
same,TGI,EKVX NSCLC,> 100 µM
same,TGI,NCI-H460 lung,> 100 µM
same,TGI,HL-60(TB) leukemia,> 100 µM
same,TGI,SK-MEL-2 melanoma,> 100 µM
same,TGI,MCF7 breast,> 100 µM
same,TGI,NCI/ADR-RES ovarian,> 100 µM
same,TGI,RPMI-8226 leukemia,> 100 µM
